“And” between values parts separate entries of the source, which are not always exact repeats. Equal entries are not always repeated.
Experiments:
A. baumannii 5075 [1] = assay: Time kill assays; format: cell-based; conditions: for rate of killing: each agent at its MIC
Method: dissolved in DMSO, such that the resultant solution had the highest concentration of compound or antibiotic tested and 1.5% DMSO. To carry out the serial dilution from the highest compound concentration, a 150 μ L solution of higher concentration compound or antibiotic was mixed with 150 μ L of cell suspension containing 1.5% DMSO in the wells of a 96 well plate.
Th e 96 well plate was in cubated for 20 hat 35 °C with continuous orbital shaking (205 cpm) in an Epoch2 microplate reader (BioTek), monitoring the growth by […]
following the OD600. […]
Time Kill Assays. Time-kill assays were performed with A. baumannii 507 5 by the broth macro- dilution method in M63- medium containing 1.5% DMSO. An overnight culture was diluted to approximately 5 x10^5 CFU/mL in fresh M63 media. The test solutions were prepared by adding compound (KM-5- 35, or KM-5- 25) dissolved in DMSO to 5 mL of diluted cell suspension to yield a solution of the desired compound concentration and 1.5% DMSO, or by the addition of antibiotic dissolved in water and a small volume of DMSO to produce the desired […]
antibiotic concentration and 1.5% DMSO. Controls containing the diluted cell suspension, 1.5% DMSO but no test compounds were also prepared. […]
800 µL of the suspension was lay ered onto 700 µL of chilled silicon oil contained in 1.5 mL Eppendo rf tubes and then centrifuged at 4 °C ( 900 x g) for 10 min, then again at 16,200 x g for 5 min to allow pass ag e of the cell suspension through the silicon oil layer. The aqueous and oil layers were removed, and the cell pellet was washed twice in PBS (800 μ L), each time transferring the cell suspension to a new Eppendorf tube and then centrifuging at 16,200 x g. The cell pellet was lysed in 800 µL methanol by vortexing followed by 10 min incubationat room temperatur e. The lysate suspension was pelleted, the supernatant was transferred to a new Eppendorf tube and then placed into a vacuum concentrator (Eppendorf 5301 Vacufuge) to evaporate the methanol (4 h). The dried

A. baumannii 5075 [2] = assay: Checkerboard assay; format: cell-based
Method: To carry out the serial dilution from the highest compound concentration, a 150 μ L solution of higher concentration compound or antibiotic was mixed with 150 μ L of cell suspension containing […] Th e 96 well plate was in cubated for 20 hat 35 °C with continuous orbital shaking (205 cpm) in an Epoch2 microplate reader (BioTek), monitoring the growth by following the OD600. […] All assays were p erfo rmed in three biological replicates, each with three […] replicates. Checkerboard Assay. […] CFU/mL. […] in the vertical and hori zontal direction, respectivel y. Bacterial suspensions were […] escrib ed above fo r the MIC determination and added to the plates. […] The 96-well […] cubated for 20 h at 35 °C with continuous orbital shaking (205 cpm) in an Epoch2 microplate reader (BioTek), monitoring the growth by following the OD600. The MIC values of inhibitor and antibiotic were obtained from the corresponding row or column which contained only one component, whereas the remaining rows and columns were utilized for calculating the fractional inhibitory concentration index (FIC) with the aid of equation […] = […]2 Time Kill Assays. Time-kill assays were performed with A. baumannii 507 5 by the broth macro- dilution method […] An overnight culture was diluted to approximately 5 x10^5 CFU/mL in fresh […] media. […] DMSO, or by the addition of antibiotic dissolved in water and a small volume of DMSO to produce the desired S7

Row | SMILES | time kill outcome (A. baumannii 5075 [1]; compound at 1 × MIC) | time kill outcome (A. baumannii 5075 [1]; compound at 1.5 × MIC (limit of aqueous solubility)) | reduction of viable cells (CFU/mL) relative to the inoculum (A. baumannii 5075 [1]; compound at the MIC) | time to approximately 3log10 reduction of viable cells (A. baumannii 5075 [1]; compound at the MIC) | rate of killing (A. baumannii 5075 [1]) | FIC (A. baumannii 5075 [2]; KM-5–25 with colistin, 5075 (Figure S3)) | FIC (A. baumannii 5075 [2]; KM-5–25 with imipenem, 5075 (Figure S3)) | FIC (A. baumannii 5075 [2]; KM-5–35 with ceftazidime, 5075) | FIC (A. baumannii 5075 [2]; KM-5–35 with ciprofloxacin, 5075) | FIC (A. baumannii 5075 [2]; KM-5–35 with meropenem, 5075) | FIC (A. baumannii 5075 [2]; KM-5–35 with tobramycin, 5075) | MIC alone (A. baumannii 5075 [2]; agent alone, 5075, KM-5–35 14 μg/mL = 40 μM) | MIC of KM-5–35 in combination (A. baumannii 5075 [2]; in combination with ceftazidime, 5075) | MIC of KM-5–35 in combination (A. baumannii 5075 [2]; in combination with ciprofloxacin, 5075) | MIC of KM-5–35 in combination (A. baumannii 5075 [2]; in combination with imipenem, 5075) | MIC of KM-5–35 in combination (A. baumannii 5075 [2]; in combination with tobramycin, 5075)
1 | O=C1NC(=O)c2c(NCc3cc(Cl)ccc3O)cccc21 [KM-5-25, 4-((5-Chloro-2-hydroxybenzyl)amino)isoindoline-1,3-dione] | cell growth is observed at later hours | bactericidal | approximately 3 log10 | approximately 3 h | slower than that observed with KM-5–35 | 0.36 and 0.38 | 0.63 |  |  |  |  |  |  |  |  | 
2 | O=C1NC(=O)c2c(NCc3cc(Br)ccc3O)cccc21 [KM-5-35, 4-((5-Bromo-2-hydroxybenzyl)amino)isoindoline-1,3-dione] | bactericidal |  | > 3 log10 |  | faster than meropenem but slower than colistin |  |  | 0.50 | 0.53 | 0.50 | 0.50 | 14 µg/mL | 7 µg/mL | 7 µg/mL | 3.5 µg/mL | 7 µg/mL

— publication PMC12261321, “Inhibitors of the Bacterioferritin Ferredoxin Complex Dysregulate Iron Homeostasis and Kill and Biofilm-Embedded Cells” (ACS Infectious Diseases, 2025)
